{"source": "patent US5447919A", "about": "“Sulfated oligosaccharides” (Hoffmann-La Roche Inc., priority 1991, dated 1995)", "key": {"[1]": {"system": "smooth muscle cells of rats", "assay": "Anti-proliferative activity in smooth muscle cell culture (% inhibition of growth after 7 days)", "type": "cell-based, rat", "settings": "for Anti-proliferative activity % inhibition: rat smooth muscle cells, 7 days, test substance 100 mg/ml as printed (100 μl/ml), vs non-inhibited growth", "protocol": "The anti-proliferative activity of the substances was determined in cell cultures as follows: smooth muscle cells of rats (cultivated in DMEM with 10% FCS at 37° C. and 5% CO2) were applied to cell culture plates with a density of 8×10^3 cells/well. After 4 hours, the number of adhered cells was determined and the substances to be tested ([…]) were added. Cells to which test substance was not added served as a comparison and heparin ([…]) served as a positive control. The cells were incubated for 7 days and then the cell number was determined. The antiproliferative activity of the individual substances was calculated as the % inhibition in comparison to non-inhibited growth: [formula] wherein cell number(d=0) =cell number after 4 h […]\ncell number(-) =cell number to which test substances was not added, after 7 days. cell number (inhib) =cell number with […] of the test substance"}, "[2]": {"target": "Factor Xa (Bos taurus, UniProt P00743)", "sequence (P00743 234-492 limits assumed)": "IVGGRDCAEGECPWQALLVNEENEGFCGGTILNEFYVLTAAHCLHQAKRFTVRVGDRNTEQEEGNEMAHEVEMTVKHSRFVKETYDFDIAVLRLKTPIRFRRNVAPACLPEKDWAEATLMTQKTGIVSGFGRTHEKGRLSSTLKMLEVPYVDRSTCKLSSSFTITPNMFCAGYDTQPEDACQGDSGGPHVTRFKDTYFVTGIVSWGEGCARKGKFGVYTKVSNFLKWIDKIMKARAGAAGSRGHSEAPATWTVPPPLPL", "sequence (P00743 41-180 partner limits assumed)": "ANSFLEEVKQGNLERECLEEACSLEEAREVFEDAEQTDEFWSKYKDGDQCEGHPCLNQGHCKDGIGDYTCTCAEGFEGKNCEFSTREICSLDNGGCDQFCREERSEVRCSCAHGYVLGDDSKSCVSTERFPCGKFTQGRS", "assay": "anti-Xa Clotting Assay", "type": "biochemical", "settings": "concentration which leads to a coagulation time double the control value; citrated plasma", "protocol": "(§1) The blood coagulation-ihibiting activity was determined as follows:\nanti-Xa Clotting Assay: 25 μl of citrated plasma having various concentrations of test compound are mixed with 75 μl of Factor Xa (Diagnostic Reagents, Thame, Oxon, Great Britain) diluted 1:100 in 0.63% citrate buffer (pH 7.3) which contains 41 mM imidazole, 82 mM NaCl and 0.1% albumin. After warming to 37° C. for 2 minutes, 200 μl of a 1:1 mixture of Factor X Deficient Plasma (Diagnostic Reagents) and Platelet Substitute (Diagnostic Reagents) are added and the mixture is incubated at 37° C. for 20 seconds. After the addition of 100 μl of pre-warmed 50 mM calcium chloride solution, the coagulation time is measured in a Fibrometer.\n(§2) The activity of the test compound is given as the IC50, which is that concentration [μg/ml] which leads to a coagulation time which is double the control value."}, "[3]": {"system": "citrated human plasma", "assay": "aPTT (activated partial thromboplastin time) Test", "type": "biochemical", "settings": "concentration which leads to a coagulation time double the control value", "protocol": "as §1\naPTT (activated partial thromboplastin time) Test (see Walenga et al., CRC Critical Reviews in Laboratory Sciences 22 (4) 361-389(1986)): 100 μl of citrated human plasma, which contains various concentrations of test compound, are incubated at 37° C. for 8 minutes with 100 μl of Activated Thrombofax (Ortho Diagnostics, Raritan, N.J., U.S.A.). 100 μl of prewarmed 25 mM calcium chloride solution are then added and the coagulation time is measured in a Fibrometer Coagulation Timer (Becton, Dickinson Basle).\nas §2"}}}
{"substance": "Heparin [reference compound]", "values": [{"measurement": "anti-proliferative activity (in words)", "setting": "[1]; summary of test results of Table 1", "result": "anti-proliferatively active"}]}
{"substance": "sulfated raffinose [Example 1]", "values": [{"measurement": "Anti-proliferative activity % inhibition", "setting": "[1]", "result": 41, "unit": "%"}, {"measurement": "Anti-coagulation activity IC50, Coagulation inhibition Xa", "setting": "[2]", "result": "> 1000", "unit": "µg/mL"}, {"measurement": "Anti-coagulation activity IC50, Coagulation inhibition aPTT", "setting": "[3]", "result": 27, "unit": "µg/mL"}]}
{"substance": "sulfated melezitese [Example 2]", "values": [{"measurement": "Anti-proliferative activity % inhibition", "setting": "[1]", "result": 25, "unit": "%"}, {"measurement": "Anti-coagulation activity IC50, Coagulation inhibition Xa", "setting": "[2]", "result": 250, "unit": "µg/mL"}, {"measurement": "Anti-coagulation activity IC50, Coagulation inhibition aPTT", "setting": "[3]", "result": 150, "unit": "µg/mL"}]}
